Data: patent publication US10160762B2, “6-alkyl dihydropyrazolopyrimidinone compounds as PDE2 inhibitors” (Merck Sharp & Dohme Corp., priority 2015, dated 2018)

Target: T1, human PDE2A1 (Homo sapiens, UniProt O00408)
T1 construct: GST; purchased BPS Bioscience (San Diego, Calif.) 60020; host or cells: insect cells
Assay: IMAP FP PDE assay, human PDE2A1
Assay type: biochemical
Conditions: Lab B; read-out: Human PDE2 Ki (nM) Lab B
Summary of the method: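 GST-tagged human PDE2A1 from insect cells; substrate 50 nM FAM-cAMP containing 1000 nM cGMP in Tris pH 7.2/MgCl2/DTT buffer, enzyme giving 20% conversion. 60 min at room temperature, IMAP binding reagent, fluorescence polarization read. Apparent Ki from FP readings using apparent KM 10,000 nM; ten-point 3-fold titrations.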

T1 sequence (O00408 1-920 isoform O00408-2): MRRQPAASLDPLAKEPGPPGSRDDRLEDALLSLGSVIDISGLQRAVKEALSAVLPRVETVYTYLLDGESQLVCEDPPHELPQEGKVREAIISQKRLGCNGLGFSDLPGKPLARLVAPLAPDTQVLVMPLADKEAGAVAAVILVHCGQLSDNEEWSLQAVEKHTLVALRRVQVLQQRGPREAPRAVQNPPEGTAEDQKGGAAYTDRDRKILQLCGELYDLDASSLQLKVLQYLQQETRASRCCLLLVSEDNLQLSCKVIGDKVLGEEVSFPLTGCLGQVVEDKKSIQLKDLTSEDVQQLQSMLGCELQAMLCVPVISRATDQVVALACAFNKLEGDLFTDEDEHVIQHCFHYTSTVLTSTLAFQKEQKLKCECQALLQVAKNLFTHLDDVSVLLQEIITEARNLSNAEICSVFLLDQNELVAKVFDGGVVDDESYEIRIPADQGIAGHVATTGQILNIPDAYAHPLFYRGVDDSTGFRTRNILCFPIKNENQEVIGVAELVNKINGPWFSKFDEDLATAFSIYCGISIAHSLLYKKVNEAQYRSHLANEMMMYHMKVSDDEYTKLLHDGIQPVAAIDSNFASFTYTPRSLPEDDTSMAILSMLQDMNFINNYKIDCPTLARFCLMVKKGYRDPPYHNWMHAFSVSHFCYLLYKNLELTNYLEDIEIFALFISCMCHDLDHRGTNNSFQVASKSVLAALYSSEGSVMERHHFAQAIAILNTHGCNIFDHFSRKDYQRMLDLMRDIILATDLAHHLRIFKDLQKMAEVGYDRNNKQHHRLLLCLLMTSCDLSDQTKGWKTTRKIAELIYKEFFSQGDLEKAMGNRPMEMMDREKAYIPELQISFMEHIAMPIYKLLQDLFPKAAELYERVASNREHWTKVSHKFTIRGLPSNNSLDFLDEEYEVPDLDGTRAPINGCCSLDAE

In the case of `Cc1nc2c(c(CO)nn2C(C)c2ccc(C3(C(F)(F)F)CC3)cc2)c(=O)[nH]1` (single isomer, unassigned) [Example 81], the Ki is reported as 7.7 nM.
`CC(=O)c1nn([C@@H](C)c2ccc(C(F)(F)F)cc2)c2nc(C)[nH]c(=O)c12` [Example 322, (S)-3-Acetyl-6-methyl-1-(1-(4-(trifluoromethyl)phenyl)ethyl)-1,5-dihydro-4H-pyrazolo[3,4-d]pyrimidin-4-one] gave a Ki of 42 nM.
`COc1cccc(Cc2nc3c(c(-c4nnco4)nn3C(C)c3ccc(C(F)(F)F)cc3)c(=O)[nH]2)c1` (single isomer, unassigned) [Example 344, (R)- or (S)-6-(3-Methoxybenzyl)-3-(1,3,4-oxadiazol-2-yl)-1-(1-(4-(trifluoromethyl)phenyl)ethyl)-1,5-dihydro-4H-pyrazolo[3,4-d] pyrimidin-4-one] showed a Ki of 26 nM.
For `Cc1nc2c(c(C(F)F)nn2C(C)c2ccc(OC(F)(F)F)c(F)c2)c(=O)[nH]1` (single isomer, unassigned) [Example 169, (R)- or (S)-3-(Difluoromethyl)-1-(1-(3-fluoro-4-(trifluoromethoxy)phenyl)ethyl)-6-methyl-1H-pyrazolo [3,4-d]pyrimidin-4(5H)-one], the Ki was 18 nM.
For `Cc1nc2c(c(CO)nn2C(C)c2ccc(OC(F)F)c(F)c2)c(=O)[nH]1` (single isomer, unassigned) [Example 112, (R)- or (S)-1-(1-(4-(Difluoromethoxy)-3-fluorophenyl)ethyl)-3-(hydroxymethyl)-6-methyl-1H-pyrazolo[3,4-d]pyrimidin-4(5H)-one], the Ki was 88 nM.
`Cc1nc2c(c(C(F)F)nn2C(C)c2ccc(C(F)(F)F)c(F)c2)c(=O)[nH]1` (single isomer, unassigned) [Example 167, (R)- or (S)-3-(Difluoromethyl)-1-(1-(3-fluoro-4-(trifluoromethyl)phenyl)ethyl)-6-methyl-1H-pyrazolo[3,4-d]pyrimidin-4(5H)-one] showed a Ki of 256 nM.
`CC(=O)Nc1nn(C(C)c2ccc(C(F)(F)F)cc2)c2nc(C)[nH]c(=O)c12` (single isomer, unassigned) [Example 260] was tested, and the Ki was 54 nM.
Work on `Cc1nc2c(c(C(F)F)nn2C(C)c2ccc(C(F)(F)F)cc2Cl)c(=O)[nH]1` (single isomer, unassigned) [Example 183, (R)- or (S)-1-(1-(2-Chloro-4-(trifluoromethyl)phenyl)ethyl)-3-(difluoromethyl)-6-methyl-1H-pyrazolo[3,4-d]pyrimidin-4(5H)-one] yielded a Ki of 547 nM.
In the case of `Cc1nc2c(c(CO)nn2C(C)c2ccc(C(F)(F)F)nc2)c(=O)[nH]1` (single isomer, unassigned) [Example 131, (S)- or (R)-3-(Hydroxymethyl)-6-methyl-1-(1-(6-(trifluoro-methyl)pyridin-3-yl)ethyl)-1H-pyrazolo[3,4-d]pyrimidin-4(5H)-one], the Ki is reported as 57 nM.
Compound `Cc1nc2c(c(-c3cn[nH]c3)nn2C(C)c2ccc(C(F)(F)F)cc2)c(=O)[nH]1` (single isomer, unassigned) [Example 238] has a Ki of 48 nM.
`Cc1nc2c(c(CO)nn2C(c2ccc(C(F)(F)F)c(F)c2)C2(C)CC2)c(=O)[nH]1` (single isomer, unassigned) [Example 14, (R)- or (S)-1-((3-Fluoro-4-(trifluoromethyl)phenyl)(1-methylcyclopropyl)methyl)-3-(hydroxymethyl)-6-methyl-1H-pyrazolo[3,4-d]pyrimidin-4(5H)-one] gave a Ki of 2.4 nM.
`CC(c1ccc(C(F)(F)F)cc1)n1nc(-c2nnco2)c2c(=O)[nH]c(CC3CCCC3)nc21` (single isomer, unassigned) [Example 342, (R) or (S)-6-(Cyclopentylmethyl)-3-(1,3,4-oxadiazol-2-yl)-1-(1-(4-(trifluoromethyl)phenyl)ethyl)-1,5-dihydro-4H-pyrazolo[3,4-d] pyrimidin-4-one] gave a Ki of 2.5 nM.
`Cc1nc2c(c(C(=O)NCC(F)(F)F)nn2C(C)c2ccc(C(F)(F)F)cc2)c(=O)[nH]1` (single isomer, unassigned) [Example 268, (R)- or (S)-6-Methyl-4-oxo-N-(2,2,2-trifluoroethyl)-1-(1-(4-(trifluoromethyl)phenyl)ethyl)-4,5-dihydro-1H-pyrazolo[3,4-d]pyrimidine-3-carboxamide] was tested, and the Ki was 311 nM.
`Cc1nc2c(c(CC(F)(F)F)nn2C(c2ccc(C(F)(F)F)c(F)c2)C(C)(C)C)c(=O)[nH]1` (single isomer, unassigned) [Example 60, (R)- or (S)-1-(1-(3-Fluoro-4-(trifluoromethyl)phenyl)-2,2-dimethylpropyl)-6-methyl-3-(2,2,2-trifluoroethyl)-1H-pyrazolo[3,4-d]pyrimidin-4(5H)-one] was tested, and the Ki was > 2960 nM.
`Cc1nc2c(c(CO)nn2C(C)c2ncn(CC(F)(F)F)n2)c(=O)[nH]1` (single isomer, unassigned) [Example 148] was tested, and the Ki was 671 nM.
Work on `Cc1nc2c(c(C(F)F)nn2C(C)c2ccc(OC(F)(F)F)cc2)c(=O)[nH]1` (single isomer, unassigned) [Example 178, (S)- or (R)-3-(Difluoromethyl)-6-methyl-1-(1-(4-(trifluoromethoxy)phenyl)ethyl)-1H-pyrazolo[3,4-d]pyrimidin-4(5H)-one] yielded a Ki of 0.72 nM.
Work on `COCC(c1ccc(C(F)(F)F)cc1)n1nc(CO)c2c(=O)[nH]c(C)nc21` (single isomer, unassigned) [Example 100, (R)- or (S)-3-(Hydroxymethyl)-1-(2-methoxy-1-(4-(trifluoromethyl)phenyl)ethyl)-6-methyl-1H-pyrazolo[3,4-d]pyrimidin-4(5H)-one] yielded a Ki of ~1670 nM.
In the case of `Cc1nc2c(c(C(F)(F)CO)nn2C(C)c2ccc(C(F)(F)F)cc2)c(=O)[nH]1` (single isomer, unassigned) [Example 254], the Ki is reported as 452 nM.
Work on `Cc1nc2c(c(-c3nnco3)nn2C(C)c2ccc(C(F)(F)F)cc2)c(=O)[nH]1` (single isomer, unassigned) [Example 263] yielded a Ki of 0.88 nM.
`COc1cccc(Cc2nc3c(c(-c4nnco4)nn3C(C)c3ccc(C(F)(F)F)cc3)c(=O)[nH]2)c1` (single isomer, unassigned) [Example 345, (S)- or (R)-6-(3-Methoxybenzyl)-3-(1,3,4-oxadiazol-2-yl)-1-(1-(4-(trifluoromethyl)phenyl)ethyl)-1,5-dihydro-4H-pyrazolo[3,4-d] pyrimidin-4-one] showed a Ki of 0.15 nM.
For `Cc1nc2c(c(CO)nn2C(C)c2ccc(C3(C)CC3)cc2)c(=O)[nH]1` (single isomer, unassigned) [Example 143, (R)- or (S)-3-(Hydroxymethyl)-6-methyl-1-(1-(4-(1-methylcyclopropyl)phenyl)ethyl)-1H-pyrazolo[3,4-d]pyrimidin-4(5H)-one], the Ki was 193 nM.
In the case of `Cc1nc2c(c(CO)nn2C(C)c2ccc(S(F)(F)(F)(F)F)cc2F)c(=O)[nH]1` (single isomer, unassigned) [Example 121], the Ki is reported as 2.8 nM.
`Cc1nc2c(c(N)nn2C(C)c2ccc(C(F)(F)F)cc2)c(=O)[nH]1` (stereo not drawn) [Example 258, 3-Amino-6-methyl-1-(1-(4-(trifluoromethyl)phenyl)ethyl)-H-pyrazolo[3,4-d]pyrimidin-4(5H)-one] gave a Ki of 42 nM.
Compound `COCC(c1ccc(C(F)(F)F)cc1)n1nc(C(F)F)c2c(=O)[nH]c(C)nc21` (single isomer, unassigned) [Example 173, (R)- or (S)-3-(Difluoromethyl)-1-(2-methoxy-1-(4-(trifluoromethyl)phenyl)ethyl)-6-methyl-1H-pyrazolo[3,4-d]pyrimidin-4(5H)-one] has a Ki of 4.6 nM.
